According to paper PMC7139804 (2020):

Experiments:
[1] = system: tel26 (DNA, G4) TTAGGGTTAGGGTTAGGGTTAGGGTT; test: fluorescence titration and Job plot; conditions: 20 mM KCl, 5 mM KH2PO4; 10% DMSO, pH 7, 20 °C; 2 µM ligand, DNA up to 10 µM; no tight binding
[2] = system: ds27 (DNA, hairpin) CGCGAATTCGCGTTTCGCGAATTCGCG; test: fluorescence titration and Job plot; conditions: 20 mM KCl, 5 mM KH2PO4; 10% DMSO, pH 7, 20 °C; 2 µM ligand, DNA up to 10 µM; no tight binding
[3] = system: CPG-cmyc (DNA, G4) TGGGGAGGGTGGGGAGGGTGGGGAAGGTGGGGA; test: G4-CPG affinity chromatography; conditions: 50 mM KCl; washing solution with 10% DMSO, 10% ethanol; oligonucleotide on CPG; errors within ± 2%
[4] = system: cmyc (DNA, G4) TGGGGAGGGTGGGGAGGGTGGGGAAGGTGGGGA; test: fluorescence titration and Job plot; conditions: 20 mM KCl, 5 mM KH2PO4; 10% DMSO, pH 7, 20 °C; 2 µM ligand, DNA up to 10 µM; no tight binding
[5] = system: CPG-ds27 (DNA, hairpin) CGCGAATTCGCGTTTCGCGAATTCGCG; test: G4-CPG affinity chromatography; conditions: 50 mM KCl; washing solution with 10% DMSO, 10% ethanol; oligonucleotide on CPG; errors within ± 2%
[6] = system: CPG-tel26 (DNA, G4) TTAGGGTTAGGGTTAGGGTTAGGGTT; test: G4-CPG affinity chromatography; conditions: 50 mM KCl; washing solution with 10% DMSO, 10% ethanol; oligonucleotide on CPG; errors within ± 2%
[7] = system: cmyc (DNA, G4) TGGGGAGGGTGGGGAGGGTGGGGAAGGTGGGGA; test: fluorescence titration, independent equivalent-sites fit; conditions: 20 mM KCl, 5 mM KH2PO4, 10% DMSO, pH 7, 20 °C, 2 µM ligand
[8] = system: tel26 (DNA, G4) TTAGGGTTAGGGTTAGGGTTAGGGTT; test: as above; conditions: 20 mM KCl, 5 mM KH2PO4, 10% DMSO, pH 7, 20 °C, 2 µM ligand
[9] = system: tel26 (DNA, G4) TTAGGGTTAGGGTTAGGGTTAGGGTT; test: CD melting at 290 nm; conditions: 20 mM KCl, 5 mM KH2PO4; 10% DMSO, pH 7; 2 µM DNA, 12 µM compound (1:6)
[10] = system: ds27 (DNA, hairpin) CGCGAATTCGCGTTTCGCGAATTCGCG; test: fluorescence titration, independent equivalent-sites fit; conditions: 20 mM KCl, 5 mM KH2PO4, 10% DMSO, pH 7, 20 °C, 2 µM ligand

How did the binding [1] turn out when CN(C)CCCN1C(=O)c2ccc3c4c(c(NCCOCCOCCNc5cc6c7c(c(Br)cc8c7c5C(=O)N(CCCCCC(=O)O)C8=O)C(=O)N(CCCCCC(=O)O)C6=O)cc(c24)C1=O)C(=O)N(CCCN(C)C)C3=O was run?
The binding was “weak”.

And the binding [2]?
Its binding is “weak”.

And the “Bound Ligand (%)” value [3]?
The value was 79%.

What about the binding [4] of the same molecule?
The binding was “weak”.

What about the “Bound Ligand (%)” value [5] of the same molecule?
Its value is 33%.

What about the “Bound Ligand (%)” value [6] of the same molecule?
The value was 68%.

For CN(C)CCCN1C(=O)c2ccc3c4c(c(NCCOCCOCCN)cc(c24)C1=O)C(=O)N(CCCN(C)C)C3=O, which “Bound Ligand (%)” value [5] is on record?
Its value is 41%.

And the “Bound Ligand (%)” value [6]?
The value was 97%.

CCCNc1cc2c3c(c(NCCCN(C)C)cc4c3c1C(=O)N(CCCN(C)C)C4=O)C(=O)N(CCCN(C)C)C2=O was tested. Which “Bound Ligand (%)” value [5] did it give?
The value was 46%.

And the “Bound Ligand (%)” value [6]?
Its value is 92%.

Which results are given for CN(C)CCCN1C(=O)c2ccc3c4c(c(NCCOCCOCCNc5cc6c7c(ccc8c7c5C(=O)N(CCCCCC(=O)O)C8=O)C(=O)N(CCCCCC(=O)O)C6=O)cc(c24)C1=O)C(=O)N(CCCN(C)C)C3=O?
Bound Ligand (%) [3]: 79%; Bound Ligand (%) [5]: 34%; Bound Ligand (%) [6]: 85%

How did the “Bound Ligand (%)” value [3] turn out when CN(C)CCCNc1cc2c3c(c(NCCOCCOCCNc4cc5c6c(ccc7c6c4C(=O)N(CCCCCC(=O)O)C7=O)C(=O)N(CCCCCC(=O)O)C5=O)cc4c3c1C(=O)N(CCCN(C)C)C4=O)C(=O)N(CCCN(C)C)C2=O was run?
Its value is 87%.

What about the “Bound Ligand (%)” value [5] of the same molecule?
The value was 71%.

And the “Bound Ligand (%)” value [6]?
The value was 90%.

CN(C)CCCN1C(=O)c2cc(NCCCCCCCNc3cc4c5c(ccc6c5c3C(=O)N(CCCCCC(=O)O)C6=O)C(=O)N(CCCCCC(=O)O)C4=O)c3c4c(cc(Br)c(c24)C1=O)C(=O)N(CCCN(C)C)C3=O was tested. Which “Bound Ligand (%)” value [3] did it give?
The value was 79%.

What about the “Bound Ligand (%)” value [5] of the same molecule?
The value was 71%.

And the “Bound Ligand (%)” value [6]?
The value was 75%.

With CN(C)CCCN1C(=O)c2cc(NCCOCCOCCNc3cc4c5c(ccc6c5c3C(=O)N(CCCCCC(=O)O)C6=O)C(=O)N(CCCCCC(=O)O)C4=O)c3c4c(cc(Br)c(c24)C1=O)C(=O)N(CCCN(C)C)C3=O as the molecule, how does the “Bound Ligand (%)” value [3] read?
The value was 64%.

What about the “Bound Ligand (%)” value [5] of the same molecule?
Its value is 29%.

And the “Bound Ligand (%)” value [6]?
Its value is 67%.

Which “Bound Ligand (%)” value [5] does the source give for CN(C)CCCN1C(=O)c2cc(NCCOCCOCCNc3cc4c5c(c(Br)cc6c5c3C(=O)N(CCCCCC(=O)O)C6=O)C(=O)N(CCCCCC(=O)O)C4=O)c3c4c(cc(Br)c(c24)C1=O)C(=O)N(CCCN(C)C)C3=O here?
Its value is 38%.

What about the “Bound Ligand (%)” value [6] of the same molecule?
The value was 73%.

How did the “Bound Ligand (%)” value [3] turn out when CN(C)CCCN1C(=O)c2ccc3c4c(c(NCCCCCCCN)cc(c24)C1=O)C(=O)N(CCCN(C)C)C3=O was run?
Its value is 97%.

And the “Bound Ligand (%)” value [5]?
The value was 48%.

And the “Bound Ligand (%)” value [6]?
Its value is 100%.

What does the source list for CN(C)CCCN1C(=O)c2ccc3c4c(c(NCCOCCO)cc(c24)C1=O)C(=O)N(CCCN(C)C)C3=O?
Kb [7]: 2.6 (±0.2) × 10^7 M^−1; Bound Ligand (%) [3]: 99%; Bound Ligand (%) [5]: 30%; Kb [8]: 2.4 (±0.1) × 10^7 M^−1; Bound Ligand (%) [6]: 99%; ΔTm [9]: +15 °C; Kb [10]: 1.9 (±0.2) × 10^7 M^−1

How did the “Bound Ligand (%)” value [5] turn out when CN(C)CCCN1C(=O)c2ccc3c4c(c(NCCCCCCCNc5cc6c7c(ccc8c7c5C(=O)N(CCCCCC(=O)O)C8=O)C(=O)N(CCCCCC(=O)O)C6=O)cc(c24)C1=O)C(=O)N(CCCN(C)C)C3=O was run?
The value was 61%.

And the “Bound Ligand (%)” value [6]?
The value was 77%.

For CCCNc1cc2c3c(ccc4c3c1C(=O)N(CCCN(C)C)C4=O)C(=O)N(CCCN(C)C)C2=O, which “Bound Ligand (%)” value [3] is on record?
The value was 95%.

And the “Bound Ligand (%)” value [5]?
The value was 50%.

And the “Bound Ligand (%)” value [6]?
The value was 85%.
